Read-outs that look alike come from different tables or passages of the source.
Columns and labels:
[1] = PK assay in rat (intravenous injection and oral gavage); format: in vivo; conditions: plasma, male SD rat; for Cmax: read-out: Peak concentration Cmax; for AUC(0-t): read-out: Area under curve AUC0-t; for AUC(0-inf): read-out: Area under curve AUC0-∞; for MRT: read-out: Average retention time MRT; for clearance: read-out: Clearance CL; for half-life: read-out: Half life t1/2 (converted); for Vd: read-out: Volume of distribution at steady state VZ; for bioavailability: read-out: Bioavailability F; for Tmax: read-out: Time to peak tmax
Experimental: The rats used for pharmacokinetic study in the example were male SPF-grade SD rats (B&K Universal, Shanghai).
Route of administration: a single dose by oral gavage or intravenous injection
Sampling points: 0.083 h, 0.25 h, 0.5 h, 1 h, 2 h, 4 h, 6 h, 8 h and 24 h after administration
Sample processing: 0.2 mL of venous blood was collected, and let stand on ice before centrifugation to separate plasma (centrifugation conditions: 8000 rpm, 6 min, 4° C.). The separated plasma was stored at −80° C. before analysis.
Internal standard working solution: An appropriate amount of tolbutamide internal standard stock solution at 645,000 ng/mL was added into a volumetric flask, and was diluted to the volume with methanol. The solution was well mixed to give an internal standard working solution with a concentration of 50 ng/mL.
Sample pretreatment: 50 μL of plasma was added into a 1.5-mL centrifuge tube, and added with 250 μL of internal standard solution (methanol of the same volume for the blank control). The solution was well mixed by vortex, and centrifuged for 5 min at 14000 rpm. 200 μL of the supernatant was transferred into a 96-well sample feeding plate, and loaded onto a LC-MS/MS system.
Column: ACQUITY UPLC BEH C18 1.7 μm (50 mm×2.10 mm)
Mobile phase: A: 0.1% aqueous formic acid; B: 0.1% formic acid in acetonitrile
The data processing system was Analyst software (Applied Biosystems, USA, ver 1.5.5).

[2] = target: T1, hERG potassium ion channel (Homo sapiens, UniProt Q12809); assay: hERG whole-cell patch clamp in HEK-293 cells; format: cell-based; conditions: HEK-293 cells stably expressing hERG, pH 7.4, inhibition for hERG at 30 μM concentration
T1 construct: expressed in transfected cells; host or cells: HEK-293
T1 sequence (Q12809 whole entry): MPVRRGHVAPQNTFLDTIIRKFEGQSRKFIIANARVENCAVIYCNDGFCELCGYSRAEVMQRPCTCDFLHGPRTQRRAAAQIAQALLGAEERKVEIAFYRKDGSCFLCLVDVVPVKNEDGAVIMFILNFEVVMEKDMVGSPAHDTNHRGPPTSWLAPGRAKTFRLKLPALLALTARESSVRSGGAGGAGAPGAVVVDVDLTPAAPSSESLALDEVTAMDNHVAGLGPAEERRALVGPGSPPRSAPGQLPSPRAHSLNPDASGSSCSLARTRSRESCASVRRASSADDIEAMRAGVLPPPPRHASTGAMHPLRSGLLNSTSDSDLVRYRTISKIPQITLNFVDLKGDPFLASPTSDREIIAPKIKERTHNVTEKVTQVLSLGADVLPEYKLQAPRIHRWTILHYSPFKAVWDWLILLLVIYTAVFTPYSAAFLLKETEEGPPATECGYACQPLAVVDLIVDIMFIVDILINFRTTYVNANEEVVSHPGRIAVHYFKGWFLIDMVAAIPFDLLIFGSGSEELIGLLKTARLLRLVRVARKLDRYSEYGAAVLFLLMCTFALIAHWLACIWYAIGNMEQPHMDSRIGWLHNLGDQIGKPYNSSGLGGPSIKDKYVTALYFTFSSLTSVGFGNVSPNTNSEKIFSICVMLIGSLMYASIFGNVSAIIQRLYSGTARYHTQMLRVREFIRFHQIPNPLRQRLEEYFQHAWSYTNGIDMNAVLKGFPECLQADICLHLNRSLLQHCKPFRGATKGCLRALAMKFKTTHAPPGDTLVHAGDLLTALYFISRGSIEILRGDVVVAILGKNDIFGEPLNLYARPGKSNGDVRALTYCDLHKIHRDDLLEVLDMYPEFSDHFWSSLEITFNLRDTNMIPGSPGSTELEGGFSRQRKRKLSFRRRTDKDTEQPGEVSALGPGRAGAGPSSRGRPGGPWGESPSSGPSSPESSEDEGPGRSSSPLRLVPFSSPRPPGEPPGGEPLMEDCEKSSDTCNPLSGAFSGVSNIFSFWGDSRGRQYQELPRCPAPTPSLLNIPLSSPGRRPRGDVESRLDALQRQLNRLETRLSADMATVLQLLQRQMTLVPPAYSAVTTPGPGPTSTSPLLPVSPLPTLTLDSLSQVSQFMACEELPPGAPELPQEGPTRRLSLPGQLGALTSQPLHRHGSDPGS
Experimental: This study evaluated the cardiac safety of the compounds according to the present disclosure, and an HEK-293 cell line stably expressing hERG potassium ion channel was used for detection.
Procedures: Test compound stocks were diluted in DMSO into 0.3 mM, 1 mM, and 3 mM dilutions respectively. […] The working solutions of the test compounds were ultrasonically treated for 20 min.
Patch clamping: Under an inverted microscope, recording electrodes were controlled by micromanipulator to contact with the cell. A negative voltage was applied to create a G-omega shaped connection. After forming the G-omega shaped connection, a rapid capacitance compensation was given. Under the continuous negative voltage, the cell membrane was ruptured to form a whole-cell recording configuration. In the whole-cell recording configuration, slow capacitance compensation was given, and the values of membrane capacitance and series resistance were recorded.
Voltage stimulation scheme for cellular hERG potassium current: The cell membrane clamping voltage was −80 mV; the voltage was first elevated from −80 mV to +30 mV, held for 2.5 sec, and rapidly raised to and held at −50 mV for 4 sec, thus exciting the hERG channel tail current. Data acquisition was performed every 10 sec. −50 mV was used for drain current detection.
The cover glasses planted with cells were placed in the recording chamber of an inverted microscope. Negative control and test compounds flowed through the recording chamber in an ascending order of concentration by gravity perfusion to quickly act on the cells. During the recording, the extracellular buffer was continuously circulated by a vacuum pump. The current detected in a cell in the negative control was used as the background for the cell. Each concentration was allowed to act for 5 min or until the current was stabilized. All experiments were performed at room temperature.
The current of each concentration was normalized first
and then the inhibition rate was calculated
Basic statistics were calculated for each concentration, including mean, standard deviation (SD), standard error (SE), and replicates (n). The dose-dependent curve was fitted with the following equation and the half maximal inhibitory concentration (IC50) of the test compounds was calculated:
wherein C represents the test compound concentration, IC50 represents the half maximal inhibitory concentration, and h represents the Hill coefficient. Curve fitting and calculation of IC50 were done by GraphPad Prism 5.0 software.

[3] = target: T2, CYP1A2 (Homo sapiens, UniProt P05177); assay: CYP450 inhibition in human liver microsomes, CYP1A2; format: in vitro ADME; conditions: human liver microsomes, probe phenacetin; read-out: IC50, subtype 1A2
T2 construct: tissue Corning (USA); host or cells: mixed human liver microsomes
T2 sequence (P05177 1-516): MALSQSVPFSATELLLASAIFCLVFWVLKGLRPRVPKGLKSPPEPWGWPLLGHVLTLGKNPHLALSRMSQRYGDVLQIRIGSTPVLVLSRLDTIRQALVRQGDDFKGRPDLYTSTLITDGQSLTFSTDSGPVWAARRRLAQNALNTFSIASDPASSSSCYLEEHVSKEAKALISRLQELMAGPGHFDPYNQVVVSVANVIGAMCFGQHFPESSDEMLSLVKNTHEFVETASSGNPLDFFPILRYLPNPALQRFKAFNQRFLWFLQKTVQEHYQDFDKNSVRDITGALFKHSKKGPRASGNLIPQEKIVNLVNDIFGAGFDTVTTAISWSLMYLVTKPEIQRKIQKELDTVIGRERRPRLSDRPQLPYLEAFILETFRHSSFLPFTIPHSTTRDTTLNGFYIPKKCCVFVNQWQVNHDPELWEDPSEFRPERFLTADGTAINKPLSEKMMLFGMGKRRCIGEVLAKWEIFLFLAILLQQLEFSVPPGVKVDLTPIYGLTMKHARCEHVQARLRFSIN
Experimental: This study was intended to investigate the inhibitory effect of the test compounds on five major CYP450 enzyme subtypes CYP1A2, 2C9, 2C19, 2D6 and 3A4 in human liver microsomes. The mixed human liver microsomes used in this assay were purchased from Corning (USA). The test compounds were co-incubated at 7 concentrations with human liver microsomes and five probe substrates (phenacetin for CYP1a2, diclofenac for CYP2C9, mephenytoin for CYP2C19, dextromethorphan for CYP2D6, midazolam for CYP3A4-M, mixed). The reaction was initiated by adding coenzyme NADPH, and terminated by adding acetonitrile containing internal standard. After the proteins were precipitated, the supernatant was centrifuged. The characteristic metabolites in the supernatant (acetaminophen for CYP1A2, 4-hydroxydiclofenac for CYP2C9, 4-hydroxymephenytoin for CYP2C19, dextrorphan for CYP2D6, 1-hydroxymidazolam for CYP3A4-M) were analyzed by LC-MS/MS. The influence of the test compounds on production of the characteristic metabolites was finally analyzed on the basis of the data obtained. A selective inhibitor (ketoconazole for CYP3A4-M) was used as positive control. All samples were tested in duplicate.

[4] = test system: Salmonella typhimurium TA98 and TA100; assay: Mini-Ames assay in Salmonella typhimurium; conditions: TA98 and TA100, with or without S9 mixture
Experimental: S9 homogenate: β-napthoflavone and phenobarbital induced rat liver microsome homogenate S9 fraction was used as the metabolic activation system for this assay. S9 was purchased from CHI Scientific, Inc. and stored in a freezer at −75° C. before use.
S9 mixture and mock mixture: S9 was quickly thawed to prepare a liquid mixture before the assay. 0.2 M PBS phosphate buffer (pH 7.4) was used as the mock mixture.
The overnight bacterial cultures were prepared from a stock of the strains. 80 μL of the stock was added to 20 mL of broth. For strains TA98 and TA100, 62.5 μL of ampicillin at a concentration of 0.8% were added per 10 mL of broth #2. The inoculated broth was then incubated on a thermostatic shaker overnight at 37° C. with a rotation speed of 160±10 rpm. The overnight cultures over the target absorbance were stored at 2-8° C. before use. The overnight cultures were used for genotyping and mutation tests.
The experimental system was exposed to the test compounds on plates in plate incorporation assay (Ames et al., 1975; N. Flamand et al., 2000).

[5] = 1 mg/kg, intravenous injection, 1 mpk, 5% DMSO + 15% Solutol + 80% Saline
[6] = 1 mg/kg, intravenous injection, 1 mpk
[7] = 2 mg/kg, oral administration, 2 mpk, 5% DMSO + 15% Solutol + 80% Saline
[8] = 5 mg/kg, oral administration, 5 mpk, 15% solutol HS15 + 85% PBS

SMILES: CN(C)c1cc2nn([C@H]3C[C@H](C(C)(C)O)C3)cc2cc1NC(=O)c1cccc(C(F)(F)F)n1 [MY-004-089]
- Cmax [1, 5]: 1580 ng/mL
- AUC(0-t) [1, 6]: 3390 ng·h/mL
- AUC(0-inf) [1, 6]: 3510 ng·h/mL
- MRT [1, 6]: 5.2 h
- clearance [1, 6]: 4.89 mL/min/kg
- half-life [1, 6]: 5.5 h
- Vd [1, 6]: 2.26 L/kg
- AUC(0-t) [1, 7]: 3000 ng·h/mL
- AUC(0-inf) [1, 7]: 3550 ng·h/mL
- MRT [1, 7]: 12.6 h
- bioavailability [1, 7]: 44.2%
- half-life [1, 7]: 8.11 h
- Cmax [1, 7]: 227 ng/mL
- Tmax [1, 7]: 4 h

SMILES: COc1cc2nn([C@H]3CC[C@](C)(O)CC3)cc2cc1NC(=O)c1cccc(C(F)(F)F)n1 [MY-004-126-1]
- inhibition at 5 min, 30 µM [2]: 12.8%
- IC50 [3]: > 30 µM
- Cmax [1, 5]: 1210 ng/mL
- AUC(0-t) [1, 6]: 3150 ng·h/mL
- AUC(0-inf) [1, 6]: 3250 ng·h/mL
- MRT [1, 6]: 5.46 h
- clearance [1, 6]: 5.14 mL/min/kg
- half-life [1, 6]: 5.25 h
- Vd [1, 6]: 2.34 L/kg
- AUC(0-t) [1, 8]: 11500 ng·h/mL
- AUC(0-inf) [1, 8]: 17700 ng·h/mL
- MRT [1, 8]: 22.4 h
- bioavailability [1, 8]: 73.1%
- half-life [1, 8]: 15.2 h
- Cmax [1, 8]: 924 ng/mL
- Tmax [1, 8]: 4 h

SMILES: COc1cc2nn([C@H]3CC[C@@](C)(O)CC3)cc2cc1NC(=O)c1cccc(C(F)(F)F)n1 [MY-004-126-2]
- inhibition at 5 min, 30 µM [2]: 10.1%
- Mini-Ames result [4]: negative
- Cmax [1, 5]: 1430 ng/mL
- AUC(0-t) [1, 6]: 4080 ng·h/mL
- AUC(0-inf) [1, 6]: 4540 ng·h/mL
- MRT [1, 6]: 8.81 h
- clearance [1, 6]: 3.74 mL/min/kg
- half-life [1, 6]: 7.59 h
- Vd [1, 6]: 2.4 L/kg
- AUC(0-t) [1, 8]: 15400 ng·h/mL
- AUC(0-inf) [1, 8]: 35900 ng·h/mL
- MRT [1, 8]: 10.3 h
- bioavailability [1, 8]: 75.8%
- half-life [1, 8]: 24.8 h
- Cmax [1, 8]: 1150 ng/mL
- Tmax [1, 8]: 4 h

SMILES: COc1cc2nn([C@H]3CC[C@H](O)CC3)cc2cc1NC(=O)c1cccc(C(F)(F)F)n1 [MY-004-127-1]
- inhibition at 5 min, 30 µM [2]: 11.6%
- IC50 [3]: > 30 µM
- Mini-Ames result [4]: negative
- Cmax [1, 5]: 1420 ng/mL
- AUC(0-t) [1, 6]: 5530 ng·h/mL
- AUC(0-inf) [1, 6]: 5880 ng·h/mL
- MRT [1, 6]: 7.54 h
- clearance [1, 6]: 2.84 mL/min/kg
- half-life [1, 6]: 6.29 h
- Vd [1, 6]: 1.55 L/kg
- AUC(0-t) [1, 8]: 18400 ng·h/mL
- AUC(0-inf) [1, 8]: 22500 ng·h/mL
- MRT [1, 8]: 9.16 h
- bioavailability [1, 8]: 66.5%
- half-life [1, 8]: 8.84 h
- Cmax [1, 8]: 1480 ng/mL
- Tmax [1, 8]: 4.67 h

SMILES: CN(C)c1cc2nn([C@H]3CC[C@H](O)CC3)cc2cc1NC(=O)c1cccc(C(F)(F)F)n1 [MY-004-153]
- inhibition at 5 min, 30 µM [2]: 17.7%

SMILES: CC(C)(O)c1cc2nn([C@H]3CC[C@](C)(O)CC3)cc2cc1NC(=O)c1cccc(C(C)(F)F)n1 [MY-004-165]
- IC50 [3]: > 30 µM
